Patent US20230027361A1, “METTL3 MODULATORS” (priority 2019, published 2023)
Like-named read-outs stand apart in the source and are kept apart here.

Columns and labels:
METTL3/METTL14 = METTL3/METTL14 (Homo sapiens, UniProt Q86U44); test: METTL3-14 Standard Enzyme Assay (METTL3 biochemical assay)
How it was run: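 Tritium transfer from ³H-SAM (100 nM) to biotinylated RNA (100 nM) captured on streptavidin flashplates and counted by scintillation. Enzyme complex (2.5 nM) with compound, 5 min preincubation, 30 min reaction at ambient temperature, HEPES pH 7.5 buffer, stopped by excess unlabeled SAM.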

METTL1/WDR4 = METTL1/WDR4 (Homo sapiens, UniProt Q9UBP6); test: METTL1 Assay (METTL1 biochemical assay)
Sequence of METTL1/WDR4 (Q9UBP6 whole entry, species assumed): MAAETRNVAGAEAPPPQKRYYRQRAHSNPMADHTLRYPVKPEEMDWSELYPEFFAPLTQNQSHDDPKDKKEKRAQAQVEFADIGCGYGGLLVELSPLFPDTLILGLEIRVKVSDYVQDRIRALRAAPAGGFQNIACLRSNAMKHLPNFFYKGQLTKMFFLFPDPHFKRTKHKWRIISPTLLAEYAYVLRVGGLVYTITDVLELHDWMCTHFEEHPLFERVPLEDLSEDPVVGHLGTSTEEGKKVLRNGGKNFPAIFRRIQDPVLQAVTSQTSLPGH
Sequence of METTL1/WDR4 (P57081 whole entry partner, species assumed): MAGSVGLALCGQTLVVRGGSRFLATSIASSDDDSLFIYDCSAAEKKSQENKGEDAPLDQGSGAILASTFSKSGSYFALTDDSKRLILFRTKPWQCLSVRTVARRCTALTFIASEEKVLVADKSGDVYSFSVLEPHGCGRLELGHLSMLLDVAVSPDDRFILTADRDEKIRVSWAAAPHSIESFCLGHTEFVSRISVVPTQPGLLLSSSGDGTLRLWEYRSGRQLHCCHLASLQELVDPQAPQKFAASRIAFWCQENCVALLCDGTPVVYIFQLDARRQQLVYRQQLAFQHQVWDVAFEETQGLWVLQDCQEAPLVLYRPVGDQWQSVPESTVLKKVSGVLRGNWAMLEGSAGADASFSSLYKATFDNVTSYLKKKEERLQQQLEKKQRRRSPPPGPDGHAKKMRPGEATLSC
How it was run: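 Radiometric methyltransfer by METTL1/WDR4 (6.25 nM f.c., 5 min preincubation) at ambient temperature in HEPES pH 7.5, KCl, MgCl2, DTT; started with 25 nM 3′-biotinylated RNA and 60 nM 3H-SAM, run 20 min, quenched with 15 μM cold SAM. Product captured on streptavidin flashplates (2 h, 25° C), counted by scintillation.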

PRMT5-MEP50 = PRMT5-MEP50 (Homo sapiens, UniProt O14744); test: PRMT5 Assay (PRMT5 biochemical assay)
Sequence of PRMT5-MEP50 (O14744 whole entry): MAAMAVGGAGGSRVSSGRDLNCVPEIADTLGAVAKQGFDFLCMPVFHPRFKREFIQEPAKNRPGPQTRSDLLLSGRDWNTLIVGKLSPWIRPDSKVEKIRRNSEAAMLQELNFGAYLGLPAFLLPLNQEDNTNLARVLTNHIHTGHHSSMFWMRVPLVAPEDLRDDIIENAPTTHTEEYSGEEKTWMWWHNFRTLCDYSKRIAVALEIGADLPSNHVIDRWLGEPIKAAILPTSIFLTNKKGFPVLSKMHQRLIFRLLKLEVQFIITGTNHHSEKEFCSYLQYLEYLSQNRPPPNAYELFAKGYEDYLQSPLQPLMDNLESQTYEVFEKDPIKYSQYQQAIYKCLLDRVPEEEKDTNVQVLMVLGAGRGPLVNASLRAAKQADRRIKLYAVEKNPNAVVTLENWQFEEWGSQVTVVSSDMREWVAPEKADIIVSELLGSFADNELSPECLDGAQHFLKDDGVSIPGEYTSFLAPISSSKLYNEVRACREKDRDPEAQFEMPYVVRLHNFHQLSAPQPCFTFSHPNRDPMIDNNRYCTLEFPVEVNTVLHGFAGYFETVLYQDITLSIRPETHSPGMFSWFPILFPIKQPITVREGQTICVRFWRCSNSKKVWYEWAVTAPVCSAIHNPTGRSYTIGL
Sequence of PRMT5-MEP50 (Q9BQA1 whole entry partner): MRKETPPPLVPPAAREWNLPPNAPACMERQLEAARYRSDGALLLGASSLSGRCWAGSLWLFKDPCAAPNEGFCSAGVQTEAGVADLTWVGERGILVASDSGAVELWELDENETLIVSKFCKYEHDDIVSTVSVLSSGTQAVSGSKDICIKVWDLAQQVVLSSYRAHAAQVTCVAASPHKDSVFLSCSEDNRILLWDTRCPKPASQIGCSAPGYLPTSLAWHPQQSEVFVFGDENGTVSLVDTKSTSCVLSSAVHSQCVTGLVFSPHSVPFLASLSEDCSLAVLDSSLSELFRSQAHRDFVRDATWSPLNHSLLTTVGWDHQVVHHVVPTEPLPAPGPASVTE
How it was run: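 Radiometric methyltransferase read-out: after 60 min reaction, excess unlabelled SAM (15 μM) stops turnover and biotinylated H4 peptide (100 nM) carrying 3H-methyl from 250 nM 3H-SAM is captured on streptavidin flashplates (2 h, 25° C) for scintillation counting. Enzyme, 2.5 nM PRMT5-MEP50, was preincubated 5 min with compound in pH 8.0 Tris buffer with DTT and Tween.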

[1] = tested on: m6A in cellular mRNA of MOLM-13 cells; test: m6A-mRNA LC-MS/MS Assay (m6A cellular assay); format: cell-based; conditions: Homo sapiens, MOLM-13, read-out: m^6A IC50
Description: Cells were harvested by centrifugation followed by mRNA extraction using DIRECT Dynabeads mRNA DIRECT kit (Life Technologies). mRNA was quantified on NanoDrop spectrophotometer (Thermo Fisher Scientific) and digested into single nucleosides using Nucleoside Digestion Mix (New England Biolabs). […] Quantification is performed in comparison with the standard curve, obtained from pure nucleoside standards (Selleck Chemicals) running with the same batch of samples. Percentage m^6A in cellular mRNA is calculated as 100*(m^6A/A).

MOLM-13 cells [2] = test: MOLM-13 48 Hour Cell Proliferation Assay; format: cell-based; conditions: Homo sapiens
How it was run: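 IC50 derived by 4-parameter logistic regression of CellTiter-Glo luminescence, scaled between DMSO (0% death) and staurosporine (100% death) controls. Compounds applied for 48 h at 37 °C as 10-point, 4-fold dilutions, 0.25% DMSO final, to MOLM-13 cells pre-seeded overnight in RPMI 1640 plus 10% FBS.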

MOLM-13 cells [3] = test: MOLM-13 96 Hour Cell Proliferation Assay; format: cell-based; conditions: Homo sapiens, MOLM-13, 96 h
How it was run: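 MOLM-13 cells in RPMI 1640 with 10% FBS were plated overnight at 37 °C, then exposed to compound dilutions at 0.25% DMSO final for 96 h. Viability was read by CellTiter-Glo luminescence, normalised to staurosporine (100% death) and DMSO (0% death) controls, and IC50 was fitted by 4-parameter logistic regression.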

METTL16 = molecular target: T1, METTL16 (Homo sapiens, UniProt Q86W50); test: METTL16 Assay (METTL16 biochemical assay); conditions: read-out: METTL16 IC50
T1 sequence (Q86W50 1-562): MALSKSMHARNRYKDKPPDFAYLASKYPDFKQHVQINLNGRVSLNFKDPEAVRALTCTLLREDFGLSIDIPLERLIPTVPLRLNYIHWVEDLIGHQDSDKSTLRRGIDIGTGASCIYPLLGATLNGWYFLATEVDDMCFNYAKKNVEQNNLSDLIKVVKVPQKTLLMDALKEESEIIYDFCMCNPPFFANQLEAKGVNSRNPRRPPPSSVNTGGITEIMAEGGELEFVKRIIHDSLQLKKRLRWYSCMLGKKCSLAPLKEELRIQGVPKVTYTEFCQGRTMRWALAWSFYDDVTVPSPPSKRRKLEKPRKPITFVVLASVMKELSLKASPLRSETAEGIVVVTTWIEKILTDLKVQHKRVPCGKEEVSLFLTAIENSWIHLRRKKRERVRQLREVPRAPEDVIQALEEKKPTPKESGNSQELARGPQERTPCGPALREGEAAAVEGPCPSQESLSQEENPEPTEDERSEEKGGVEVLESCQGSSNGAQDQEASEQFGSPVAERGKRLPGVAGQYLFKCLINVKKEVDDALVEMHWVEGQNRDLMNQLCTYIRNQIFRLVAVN
Description: Assays were performed in a 25 μl-volume in 384-well V-bottom polypropylene microplates (Greiner Bio-One, cat. No. 781280) at ambient temperature. Optimized 1× assay buffer was 20 mM HEPES pH 7.5, 50 mM KCl, 1 mM DTT, 0.01% Tween, 0.01% BSG, 0.004 U/μl RNAseOUT (cat. No. 10777019, ThermoFisher Scientific, Waltham, Mass.). For compound screening METTL16 (final concentration, f.c.=100 nM) was added using a Multidrop Combi (ThermoFisher Scientific, Waltham, Mass.) and preincubated for 5 min. Reactions were started by adding 3′ biotinylated RNA ([…]-biotin) (f.c.=50 nM), 3H-SAM (f.c.=200 nM) and non-radiolabeled SAM (f.c.=800 nM) substrates. Reactions proceeded for 20 minutes and were quenched with excess non-radioactive SAM (f.c.=100 μM). The reactions were then transferred to streptavidin-coated flashplates and incubated for 2 hours at 25° C. Following two washing cycles with 0.1% Tween-20, the plates were sealed and read on a TopCount (PerkinElmer, Waltham, Mass.) plate-based scintillation counter. For determination of kinetic parameters, reaction times were optimized so that measurements were taken during the initial velocity phase of the reaction.

[4] = METTL3 biochemical assay, read-out: METTL3 IC50
[5] = read-out: METTL1 IC50, METTL1 biochemical assay
[6] = PRMT5 biochemical assay, read-out: PRMT5 IC50
[7] = METTL1 biochemical assay, read-out: METTL1 IC50
[8] = read-out: METTL3 IC50, METTL3 biochemical assay
[9] = read-out: PRMT5 IC50, PRMT5 biochemical assay

Sequence of METTL3/METTL14 (Q86U44 whole entry, species assumed): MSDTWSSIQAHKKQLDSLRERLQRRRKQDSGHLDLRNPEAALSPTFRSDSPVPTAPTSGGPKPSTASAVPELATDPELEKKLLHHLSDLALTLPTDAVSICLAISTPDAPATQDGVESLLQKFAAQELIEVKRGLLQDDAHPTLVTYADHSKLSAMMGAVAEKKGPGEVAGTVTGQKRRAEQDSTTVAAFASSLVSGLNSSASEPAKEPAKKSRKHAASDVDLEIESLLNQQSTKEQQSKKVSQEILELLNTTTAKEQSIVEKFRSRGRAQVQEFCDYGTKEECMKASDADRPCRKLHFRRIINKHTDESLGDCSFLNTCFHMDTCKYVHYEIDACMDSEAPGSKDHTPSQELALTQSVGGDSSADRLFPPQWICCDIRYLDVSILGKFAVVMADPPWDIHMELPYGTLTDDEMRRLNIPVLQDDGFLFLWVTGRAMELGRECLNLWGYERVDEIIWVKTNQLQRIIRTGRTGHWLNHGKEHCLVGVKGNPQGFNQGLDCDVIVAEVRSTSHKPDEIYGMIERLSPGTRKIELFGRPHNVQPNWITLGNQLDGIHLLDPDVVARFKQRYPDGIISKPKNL
Sequence of METTL3/METTL14 (Q9HCE5 whole entry partner, species assumed): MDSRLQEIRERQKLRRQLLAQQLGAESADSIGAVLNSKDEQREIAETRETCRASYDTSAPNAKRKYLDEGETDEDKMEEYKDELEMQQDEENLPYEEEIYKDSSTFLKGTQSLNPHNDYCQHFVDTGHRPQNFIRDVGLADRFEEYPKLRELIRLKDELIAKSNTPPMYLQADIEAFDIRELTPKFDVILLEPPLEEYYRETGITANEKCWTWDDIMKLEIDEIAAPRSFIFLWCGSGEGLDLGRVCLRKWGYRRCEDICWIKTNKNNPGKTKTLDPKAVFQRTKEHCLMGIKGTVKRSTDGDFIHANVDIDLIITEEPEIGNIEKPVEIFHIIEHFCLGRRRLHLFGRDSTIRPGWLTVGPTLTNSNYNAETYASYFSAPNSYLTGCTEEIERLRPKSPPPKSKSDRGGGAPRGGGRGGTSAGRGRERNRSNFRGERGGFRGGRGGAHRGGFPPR

SMILES | IC50 (METTL3/METTL14; [4]) [nM] | IC50 (METTL1/WDR4; [5]) [nM] | IC50 (PRMT5-MEP50; [6]) [nM] | IC50 [1] [nM] | IC50 (MOLM-13 cells [2]) [nM] | IC50 (MOLM-13 cells [3]) [nM] | IC50 (METTL3/METTL14) [nM] | IC50 (METTL1/WDR4; [7]) [nM] | IC50 (PRMT5-MEP50) [nM] | IC50 (METTL1/WDR4) [nM] | IC50 (METTL3/METTL14; [8]) [nM] | IC50 (PRMT5-MEP50; [9]) [nM] | IC50 (METTL16) [nM]
CN(C)c1ccc2ccc(OC[C@H]3O[C@@H](n4cc(C5CCCC5)c5c(N)ncnc54)[C@H](O)[C@@H]3O)cc2n1 [I-42] | < 10 | > 1000 | 10 to 100 | 1000 to 10000 | 1000 to 10000 | 1000 to 10000 |  |  |  |  |  |  | 
CNc1ccc2ccc(OC[C@H]3O[C@@H](n4cc(-c5cc[nH]n5)c5c(N)ncnc54)[C@@H](F)[C@@H]3O)cc2n1 [I-228] |  |  |  | 1000 to 10000 | < 1000 | < 1000 | < 10 | > 1000 | 100 to 1000 |  |  |  | 
CNc1ccc2ccc(OC[C@H]3O[C@@H](n4cc(Cl)c5c(N)ncnc54)[C@@H](F)[C@@H]3O)cc2n1 [I-45, (2R,3R,4S,5R)-5-(4-amino-5-chloro-7H-pyrrolo[2,3-d]pyrimidin-7-yl)-4-fluoro-2-(((2-(methylamino)quinolin-7-yl)oxy)methyl)tetrahydrofuran-3-ol] | < 10 |  | 10 to 100 | 1000 to 10000 | 1000 to 10000 | 1000 to 10000 |  |  |  | > 1000 |  |  | 
Nc1ncnc2c1ccn2[C@@H]1C[C@H](CCc2ccccn2)[C@@H](O)[C@H]1O [I-118] | > 1000 | > 1000 | 100 to 1000 | > 10000 | > 10000 | > 10000 |  |  |  |  |  |  | 
CNc1ccc2ccc(OC[C@H]3O[C@@H](n4cc(-c5ccc(C)o5)c5c(N)ncnc54)[C@@H](F)[C@@H]3O)cc2n1 [I-148] |  |  |  | < 1000 | < 1000 | < 1000 |  | > 1000 |  |  | < 10 | 100 to 1000 | 
CNc1ccc2ccc(OC[C@H]3O[C@@H](n4cc(Cl)c5c(N)ncnc54)C[C@@H]3O)cc2n1 [I-48] | < 10 | > 1000 | 100 to 1000 | 1000 to 10000 | > 10000 | 1000 to 10000 |  |  |  |  |  |  | 
CNc1ccc2ccc(CC[C@H]3C[C@@H](n4cc(C5CCCC5)c5c(N)ncnc54)[C@H](O)[C@@H]3O)cc2n1 [I-55] | < 10 | > 1000 | < 10 | 1000 to 10000 | 1000 to 10000 | < 1000 |  |  |  |  |  |  | 
CNc1ccc2ccc(OC[C@H]3O[C@@H](n4cc(Br)c5c(N)ncnc54)[C@@H](F)[C@@H]3O)cc2n1 [I-46] | < 10 | > 1000 | 10 to 100 | 1000 to 10000 | 1000 to 10000 | < 1000 |  |  |  |  |  |  | 
CNc1ccc2ccc(CC[C@H]3C[C@@H](n4cc(CO)c5c(N)ncnc54)[C@H](O)[C@@H]3O)cc2n1 [I-52, (1R,2S,3R,5S)-3-[4-amino-5-(hydroxymethyl)-7H-pyrrolo[2,3-d]pyrimidin-7-yl]-5-{2-[2-(methylamino)quinolin-7-yl]ethyl}cyclopentane-1,2-diol] | < 10 |  | < 10 | 1000 to 10000 |  |  |  |  |  | > 1000 |  |  | > 1000
CCNc1ccc2ccc(OC[C@H]3O[C@@H](n4cc(Cl)c5c(N)ncnc54)[C@@H](F)[C@@H]3O)cc2n1 [I-234] | < 10 |  | 10 to 100 | 1000 to 10000 | 1000 to 10000 | 1000 to 10000 |  |  |  | > 1000 |  |  | 
CN(C)c1ccc2ccc(CC[C@H]3C[C@@H](n4ccc5c(N)ncnc54)[C@H](O)[C@@H]3O)cc2n1 [I-98] | 10 to 100 | > 1000 | 10 to 100 | > 10000 | > 10000 | 1000 to 10000 |  |  |  |  |  |  | 
CNc1ccc2ccc(CC[C@H]3C[C@@H](n4cc(C5CCCCC5)c5c(N)ncnc54)[C@H](O)[C@@H]3O)cc2n1 [I-59] | < 10 | > 1000 | < 10 | 1000 to 10000 | 1000 to 10000 | < 1000 |  |  |  |  |  |  | 
CNc1ccc2ccc(OC[C@H]3O[C@@H](n4cc(-c5cn(C)cn5)c5c(N)ncnc54)[C@@H](F)[C@@H]3O)cc2n1 [I-28] |  |  |  | 1000 to 10000 | 1000 to 10000 |  |  |  |  |  | < 10 | 100 to 1000 | > 1000
